Measured values taken from patent US9828339B2, “Biphenyl derivatives and methods for preparing same” (DONG-A ST CO., LTD, priority 2013, dated 2017).

How the values were obtained:
[1] = test system: rhythmic bladder contractions; test: Rhythmic bladder contractions in rats (in vivo); parameters: species or system rat; conditions: 0.3 mpk, intravenous, female Sprague-Dawley rats; amplitude reduction of bladder contractions
Source text: [Experimental Example 3] Experiment on Rhythmic Bladder Contractions in Rats (In Vivo)
Female Sprague-Dawley rat was halothane-anesthetized, and a polyethylene catheter was inserted through urethra lay down straight and fixed. Urine in bladder was excreted through the catheter by gently massaging abdomen of the rat, and then removed. A three-way stopcock was connected to the catheter and a pressure transducer was connected to one side of the three-way stopcock to measure pressure, and a syringe was installed at the other side to inject 37° C. of saline solution. The saline solution was slowly injected until regular bladder contractions occurred repeatedly. When regular bladder contractions occurred stably, test compounds were administered intravenously through the tail vein. Inhibitory effect of the test compounds was evaluated by measuring degree of amplitude reduction of bladder contractions.

[2] = target: human muscarinic M3 receptor (Homo sapiens (Human), UniProt P20309); test: Binding assay on human muscarinic M3 receptor ([3H]-methyl scopolamine displacement); conditions: membranes overexpressing human M3 receptor, Ki from IC50 by Cheng-Prusoff, read-out: Binding Affinity to M3 Receptor, Ki
human muscarinic M3 receptor, sequence (P20309 whole entry): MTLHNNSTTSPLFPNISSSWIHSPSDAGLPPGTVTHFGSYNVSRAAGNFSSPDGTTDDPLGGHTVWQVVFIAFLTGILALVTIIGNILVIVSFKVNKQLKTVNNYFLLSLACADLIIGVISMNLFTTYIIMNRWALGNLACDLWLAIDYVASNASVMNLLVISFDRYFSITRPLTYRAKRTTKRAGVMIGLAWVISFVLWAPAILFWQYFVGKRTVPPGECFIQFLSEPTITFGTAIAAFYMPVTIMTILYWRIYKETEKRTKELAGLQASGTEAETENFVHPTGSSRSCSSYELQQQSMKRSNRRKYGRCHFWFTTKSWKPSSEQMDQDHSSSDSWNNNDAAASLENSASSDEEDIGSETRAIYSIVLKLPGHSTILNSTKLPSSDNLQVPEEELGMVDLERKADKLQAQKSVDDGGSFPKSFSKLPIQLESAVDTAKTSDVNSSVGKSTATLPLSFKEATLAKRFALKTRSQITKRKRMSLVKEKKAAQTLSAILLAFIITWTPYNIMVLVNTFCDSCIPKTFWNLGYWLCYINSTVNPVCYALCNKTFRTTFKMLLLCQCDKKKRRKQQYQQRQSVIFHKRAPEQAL
Method in brief: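 Displacement of [3H]-methyl scopolamine from membranes overexpressing human M3, in Tris-HCl, 25 °C, 120 min; filter-bound radioactivity counted. Nonspecific binding with 5 μM atropine; Ki from IC50 via Cheng-Prusoff.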

In the case of CN1CCC[C@H]1COC(=O)Nc1ccc(F)cc1-c1ccc(Cl)c(Cl)c1 [Example 177, (S)-(1-methylpyrrolidin-2-yl)methyl (3′,4′-dichloro-5-fluoro-[1,1′-biphenyl]-2-yl)carbamate], the “Inhibition of Rhythmic bladder contraction in rats” value (“Inhibition” below) [1] is reported as 11.3 ± 2.2% and the Ki [2] is reported as 6.32 nM.
CN1CCC[C@H]1COC(=O)Nc1ccccc1-c1cccc(F)c1 [Example 160, (S)-(1-methylpyrrolidin-2-yl)methyl(3′-fluoro-[1,1′-biphenyl]-2-yl)carbamate] was tested, and the “Inhibition” value [1] was 15.5 ± 2.4% and the Ki [2] was 4.29 nM.
CN1CCC[C@H]1COC(=O)Nc1cc(F)ccc1-c1cccc(F)c1 [Example 205, (S)-(1-methylpyrrolidin-2-yl)methyl(3′,4-difluoro-[1,1′-biphenyl]-2-yl)carbamate] was tested, and the “Inhibition” value [1] was 11.9 ± 3.7% and the Ki [2] was 7.95 nM.
For CN1CC[C@H](COC(=O)Nc2ccc(F)cc2-c2ccccc2)C1 [Example 93, (S)-(1-methylpyrrolidin-3-yl)methyl (5-fluoro-[1,1′-biphenyl]-2-yl)carbamate], the “Inhibition” value [1] was 27.3 ± 1.9% and the Ki [2] was 4.12 nM.
CN1CC[C@H](COC(=O)Nc2ccccc2-c2ccc(F)c(Cl)c2)C1 [Example 121, (S)-(1-methylpyrrolidin-3-yl)methyl(3′-chloro-4′-fluoro-[1,1′-biphenyl]-2-yl)carbamate] was tested, and the “Inhibition” value [1] was 31.4 ± 6.1% and the Ki [2] was 1.75 nM.
CC(C)N1CCC[C@H]1COC(=O)Nc1ccccc1-c1ccccc1 [Example 112, (S)-(1-isopropylpyrrolidin-2-yl)-methyl [1,1′-biphenyl]-2-ylcarbamate] was tested, and the “Inhibition” value [1] was 34.8 ± 2.9% and the Ki [2] was 3.77 nM.
For CN1CCC[C@@H]1COC(=O)Nc1ccccc1-c1ccccc1 [Example 109, (R)-(1-methylpyrrolidin-2-yl)-methyl [1,1′-biphenyl]-2-ylcarbamate], the “Inhibition” value [1] was 18.1 ± 1.7% and the Ki [2] was 5.33 nM.
With CN1CCCC1CCOC(=O)Nc1ccccc1-c1cc(F)c(F)c(F)c1 (stereo not shown) [Example 3, 2-(1-methylpyrrolidin-2-yl)ethyl(3′,4′,5′-trifluoro-[1,1′-biphenyl]-2-yl)carbamate] the “Inhibition” value [1] was 15.9 ± 0.9% and the Ki [2] was 11.6 nM.
For CN1CCC[C@H]1COC(=O)Nc1ccc(F)cc1-c1cccc(F)c1 [Example 202, (S)-(1-methylpyrrolidin-2-yl)methyl (3′,5-difluoro-[1,1′-biphenyl]-2-yl)carbamate], the “Inhibition” value [1] was 17.3 ± 1.3% and the Ki [2] was 2.18 nM.
In the case of O=C(Nc1ccccc1-c1ccccc1)OC[C@@H]1CCNC1 [Example 78, (R)-pyrrolidin-3-ylmethyl [1,1′-biphenyl]-2-ylcarbamate], the “Inhibition” value [1] is reported as 17.9 ± 2.1% and the Ki [2] is reported as 4.62 nM.
For CN1CCCC1CCOC(=O)Nc1ccccc1-c1ccc(F)cc1 (stereo not shown) [Example 1, 2-(1-methylpyrrolidin-2-yl)ethyl(4′-fluoro-[1,1′-biphenyl]-2-yl)carbamate], the “Inhibition” value [1] was 26.1 ± 5.1% and the Ki [2] was 4.42 nM.
Cc1cccc(-c2cc(F)ccc2NC(=O)OC[C@@H]2CCCN2C)c1 [Example 201, (S)-(1-methylpyrrolidin-2-yl)methyl (5-fluoro-3′-methyl-[1,1′-biphenyl]-2-yl)carbamate] was tested, and the “Inhibition” value [1] was 9.1 ± 3.0% and the Ki [2] was 2.7 nM.
In the case of CN1CCC[C@H]1COC(=O)Nc1ccc(F)cc1-c1ccc(F)cc1 [Example 203, (S)-(1-methylpyrrolidin-2-yl)methyl (4′,5-difluoro-[1,1′-biphenyl]-2-yl)carbamate], the “Inhibition” value [1] is reported as 19.4 ± 4.0% and the Ki [2] is reported as 2.36 nM.
With CN1CCC[C@H]1COC(=O)Nc1ccccc1-c1ccc(F)cc1 [Example 198, (S)-(1-methylpyrrolidin-2-yl)methyl(4′-fluoro-[1,1′-biphenyl]-2-yl)carbamate] the “Inhibition” value [1] was 26.3 ± 2.4% and the Ki [2] was 1.87 nM.
